From PubChem BioAssay AID330 (DTP/NCI, 2004)
“And” between values parts separate entries of the source, which are not always exact repeats. Equal values may be shown once. Toxic doses and inconclusive results are not listed.

System: P388 leukemia ip, CD2F1 mice, survival T/C
Experiment: NCI In Vivo Anticancer Drug Screen. Data for tumor model P388 Leukemia (intraperitoneal) in CD2F1 (CDF1) mice
Conditions: endpoint: median survival time, higher = longer survival
Procedure, shortened: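 Mice carrying the transplanted tumor received test compound or vehicle. Survival was recorded in each group, and the value is the treated-group measurement divided by that of the vehicle-treated control group.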

[1] = dose: 50.0 mg/kg/injection, schedule: Q01DX005 (ip), vehicle: Klucel (hydroxypropylcellulose) (HPC)
[2] = dose: 100.0 mg/kg/injection, schedule: Q01DX005 (ip), vehicle: Klucel (hydroxypropylcellulose) (HPC)
[3] = dose: 200.0 mg/kg/injection, schedule: Q01DX005 (ip), vehicle: Klucel (hydroxypropylcellulose) (HPC)
[4] = dose: 1.0 mg/kg/injection, schedule: Q01DX009 (ip), vehicle: saline with Tween-80
[5] = dose: 60.0 mg/kg/injection, schedule: Q01DX005 (ip), vehicle: saline with Tween-80
[6] = dose: 120.0 mg/kg/injection, schedule: Q01DX005 (ip), vehicle: saline with Tween-80
[7] = dose: 240.0 mg/kg/injection, schedule: Q01DX005 (ip), vehicle: saline with Tween-80
[8] = dose: 50.0 mg/kg/injection, schedule: Q01DX009 (ip), vehicle: saline
[9] = dose: 100.0 mg/kg/injection, schedule: Q01DX009 (ip), vehicle: saline

For COc1ccc2nc(Cl)c(CO)c(CO)c2c1, the T/C [1] was 102 % of control, the T/C [2] was 95 % of control and the T/C [3] was 105 % of control.

In the case of CN(C)c1ccc(N=Nc2ccc([As](=O)(O)O)cc2)cc1, the T/C (dose: 0.5 mg/kg/injection, schedule: Q01DX009 (ip), vehicle: saline with Tween-80) is reported as 100 % of control and the T/C [4] is reported as 95 % of control.

With CCCCCCC(=O)Oc1ccc[nH]c1=O the T/C (dose: 25.0 mg/kg/injection, schedule: Q01DX009 (ip), vehicle: distilled water + Tween-80) was 104 % of control, the T/C (dose: 50.0 mg/kg/injection, schedule: Q01DX009 (ip), vehicle: distilled water + Tween-80) was 100 % of control and the T/C (dose: 100.0 mg/kg/injection, schedule: Q01DX009 (ip), vehicle: distilled water + Tween-80) was 97 % of control. For the same compound, the T/C (dose: 200.0 mg/kg/injection, schedule: Q01DX009 (ip), vehicle: distilled water + Tween-80) was 100 % of control and the T/C (dose: 400.0 mg/kg/injection, schedule: Q01DX009 (ip), vehicle: distilled water + Tween-80) was 100 % of control.

CCCCCCCCCCCCCCCCCCCC(O)CCCCCCCCC (configuration not stated) was tested, and the T/C (dose: 15.0 mg/kg/injection, schedule: Q01DX005 (ip), vehicle: saline with Tween-80) was 102 % of control, the T/C (dose: 30.0 mg/kg/injection, schedule: Q01DX005 (ip), vehicle: saline with Tween-80) was 94 % of control and the T/C [5] was 87 % of control. The T/C [6] was 86 % of control.

COc1cccc2c1C(=O)c1c(O)c3c(c(O)c1C2=O)CC(O)(C(=O)COC(C)=O)CC3OC1CC(NC(C)=O)C(O)C(C)O1 (configuration not stated) was tested, and the T/C (dose: 0.78 mg/kg/injection, schedule: Q01DX009 (ip), vehicle: other) was 122 % of control and the T/C (dose: 3.13 mg/kg/injection, schedule: Q01DX009 (ip), vehicle: other) was 120 % of control.

OC(C(=S)N1CCOCC1)(c1ccccc1)c1ccccc1 was tested, and the T/C (dose: 50.0 mg/kg/injection, schedule: Q01DX009 (ip), vehicle: Klucel (hydroxypropylcellulose) (HPC)) was 105 % of control, the T/C (dose: 100.0 mg/kg/injection, schedule: Q01DX009 (ip), vehicle: Klucel (hydroxypropylcellulose) (HPC)) was 103 % of control and the T/C (dose: 200.0 mg/kg/injection, schedule: Q01DX009 (ip), vehicle: Klucel (hydroxypropylcellulose) (HPC)) was 98 % of control.

With O=c1[nH]c2cc(Cl)ccc2nc1/C=C(\O)c1cccc2ccccc12 the T/C [5] was 89 % of control, the T/C [6] was 88 % of control and the T/C [7] was 90 % of control.

With O=c1[nH]c2nc3ccccc3n2nc1-c1ccccc1 the T/C (dose: 100.0 mg/kg/injection, schedule: Q01DX001 (ip), vehicle: Klucel (hydroxypropylcellulose) (HPC)) was 89 % of control.

In the case of COc1cccc2c1C(=O)c1c(O)c3c(c(O)c1C2=O)C[C@@](O)(C(=O)COC(=O)Cc1ccccc1)C[C@@H]3OC1CC(N)C(O)C(C)O1 (some centres not stated), the T/C [4] is reported as 166 % of control and 194 % of control, the T/C (dose: 1.32 mg/kg/injection, schedule: Q01DX009 (ip), vehicle: saline sonified) is reported as 195 % of control and the T/C (dose: 2.0 mg/kg/injection, schedule: Q01DX009 (ip), vehicle: saline sonified) is reported as 215 % of control. For the same compound, the T/C (dose: 2.0 mg/kg/injection, schedule: Q01DX009 (ip), vehicle: saline with Tween-80) was 151 % of control and 166 % of control and 212 % of control, the T/C (dose: 3.0 mg/kg/injection, schedule: Q01DX009 (ip), vehicle: saline sonified) was 270 % of control and the T/C (dose: 16.0 mg/kg/injection, schedule: Q01DX009 (ip), vehicle: saline with Tween-80) was 105 % of control.

For CC1(C)Cc2[nH]c3ccccc3c2C(C)(C)N1, the T/C [5] was 105 % of control and 99 % of control, the T/C [6] was 100 % of control and the T/C [7] was 91 % of control.

O=C1NC(O)c2ccccc2O1 (configuration not stated) was tested, and the T/C [8] was 106 % of control and the T/C [9] was 123 % of control.

CCC(=O)Nc1nnc(SCCCCCCSc2nnc(NC(=O)CC)s2)s1 was tested, and the T/C [1] was 90 % of control, the T/C [2] was 88 % of control and the T/C [3] was 91 % of control.

In the case of C=CC1OCCCO1, the T/C (dose: 60.0 mg/kg/injection, schedule: Q01DX005 (ip), vehicle: saline) is reported as 100 % of control and the T/C (dose: 120.0 mg/kg/injection, schedule: Q01DX005 (ip), vehicle: saline) is reported as 100 % of control.

In the case of Nc1nc(N)nc(CCc2nc(N)nc(N)n2)n1, the T/C [8] is reported as 103 % of control, the T/C [9] is reported as 88 % of control and the T/C (dose: 200.0 mg/kg/injection, schedule: Q01DX009 (ip), vehicle: saline) is reported as 98 % of control.
